# Test results taken from article PMC7256108 (Cellular and Molecular Life Sciences: CMLS, 2019).
# Changes are numbered by the printed parent chain. Read-outs that look alike come from different tables or passages of the source.
# Legend:
# Format in all cases: cell-based
# OR2W1 wt = target: T1, OR2W1 wt (Homo sapiens, UniProt Q9Y3N9); assay: cAMP-luminescence GloSensor assay, recombinant OR2W1 wt
# T1 construct: 39aa rho-tag; expressed in transfected cells; host or cells: NxG 108CC15 or HEK-293 cells
# T1 sequence (Q9Y3N9 1-320): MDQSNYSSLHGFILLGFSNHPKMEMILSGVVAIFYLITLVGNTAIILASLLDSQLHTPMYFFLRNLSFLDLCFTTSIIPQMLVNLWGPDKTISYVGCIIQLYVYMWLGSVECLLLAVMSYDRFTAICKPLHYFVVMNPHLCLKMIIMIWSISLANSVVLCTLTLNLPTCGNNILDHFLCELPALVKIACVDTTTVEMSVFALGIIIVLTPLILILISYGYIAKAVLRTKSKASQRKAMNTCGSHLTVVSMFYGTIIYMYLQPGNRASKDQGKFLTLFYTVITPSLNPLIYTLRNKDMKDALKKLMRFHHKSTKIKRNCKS
# Procedure: (§1) The assay was performed as reported above.
# (§2) All data are presented as mean ± SD.
# OR2W1 L202S = target: T2, OR2W1 L202S (Homo sapiens, UniProt Q9Y3N9, L202S); assay: GloSensor assay, OR2W1 L202S
# T2 construct: 39aa rho-tag; expressed in transfected cells; host or cells: NxG 108CC15 or HEK-293 cells
# T2 sequence (Q9Y3N9 1-320 L202S): T1 sequence (Q9Y3N9 1-320) with L202S
# Procedure: (§3) All receptor variants used were generated by PCR-based site-directed mutagenesis in two steps. Gene-specific primers (mutation primers) were used according to Table S2 and Table S3. The mutation primers, which carried the changed nucleotides, were designed overlapping.
# as §1, §2
# OR2W1 L202C = target: T3, OR2W1 L202C (Homo sapiens, UniProt Q9Y3N9, L202C); assay: GloSensor assay, OR2W1 L202C
# T3 construct: full-length gene-specific forward and reverse primers were added; 39aa rho-tag; expressed in transfected cells; host or cells: NxG 108CC15 or HEK-293 cells
# T3 sequence (Q9Y3N9 1-320 L202C): T1 sequence (Q9Y3N9 1-320) with L202C
# Procedure: as §3, §1, §2
# OR2W1 S109A = target: T4, OR2W1 S109A (Homo sapiens, UniProt Q9Y3N9, S109A); assay: GloSensor assay, OR2W1 S109A
# T4 construct: 39aa rho-tag; expressed in transfected cells; host or cells: NxG 108CC15 or HEK-293 cells
# T4 sequence (Q9Y3N9 1-320 S109A): T1 sequence (Q9Y3N9 1-320) with S109A
# Procedure: as §3, §1, §2
# OR2W1 Y252A = target: T5, OR2W1 Y252A (Homo sapiens, UniProt Q9Y3N9, Y252A); assay: GloSensor assay, OR2W1 Y252A; conditions: ligands 300 µmol/L
# T5 construct: 39aa rho-tag; expressed in transfected cells; host or cells: NxG 108CC15 or HEK-293 cells
# T5 sequence (Q9Y3N9 1-320 Y252A): T1 sequence (Q9Y3N9 1-320) with Y252A
# Procedure: as §3, §1, §2
# OR2W1 Y259A = target: T6, OR2W1 Y259A (Homo sapiens, UniProt Q9Y3N9, Y259A); assay: GloSensor assay, OR2W1 Y259A; conditions: ligands 300 µmol/L
# T6 construct: full-length gene-specific forward and reverse primers were added; 39aa rho-tag; expressed in transfected cells; host or cells: NxG 108CC15 or HEK-293 cells
# T6 sequence (Q9Y3N9 1-320 Y259A): T1 sequence (Q9Y3N9 1-320) with Y259A
# Procedure: as §3, §1, §2
# OR2W1 Y252A/Y259A = target: T7, OR2W1 Y252A/Y259A (Homo sapiens, UniProt Q9Y3N9, Y252A/Y259A); assay: GloSensor assay, OR2W1 Y252A/Y259A; conditions: ligands 300 µmol/L
# T7 construct: full-length gene-specific forward and reverse primers were added; 39aa rho-tag; expressed in transfected cells; host or cells: NxG 108CC15 or HEK-293 cells
# T7 sequence (Q9Y3N9 1-320 Y252A/Y259A): T1 sequence (Q9Y3N9 1-320) with Y252A, Y259A
# Procedure: as §3, §1, §2
# OR2T11 C119R = target: T8, OR2T11 C119R (Homo sapiens, UniProt Q8NH01, C119R); assay: GloSensor assay, OR2T11 C119R
# T8 construct: expressed in transfected cells; host or cells: NxG 108CC15 or HEK-293 cells
# T8 sequence (Q8NH01 whole entry C119R): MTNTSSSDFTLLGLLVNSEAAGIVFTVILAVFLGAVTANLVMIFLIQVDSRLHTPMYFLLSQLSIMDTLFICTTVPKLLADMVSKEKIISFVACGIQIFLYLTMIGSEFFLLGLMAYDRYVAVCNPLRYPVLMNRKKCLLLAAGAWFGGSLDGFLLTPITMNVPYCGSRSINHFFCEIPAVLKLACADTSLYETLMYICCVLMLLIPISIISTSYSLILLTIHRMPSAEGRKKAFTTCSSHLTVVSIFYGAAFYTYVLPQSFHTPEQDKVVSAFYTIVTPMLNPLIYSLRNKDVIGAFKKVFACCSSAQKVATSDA
# Excerpt: as §2
# Concentration-response relation of 3-mercapto-2-methylpentan-1-ol on OR2M3 in the absence or presence of each 30 µmol/L CuCl2 (a), and 30 µmol/L CuCl2 and the copper chelator TEPA (b). Concentration-response relation of 2-methylpropane-2-thiol on OR2T11 C119R in the absence or presence of 30 µmol/L CuCl2 (c). Concentration-response relation of 3-mercapto-2-methylpentan-1-ol on OR2M3 in the absence or presence of each 30 µmol/L FeCl3 (d); NiCl2 (e); CoCl2 (f); ZnSO4 (g); AgAc (h); AgNO3 (i) and colloidal silver (j). Comparison of efficacies of 20 µmol/L 3-mercapto-2-methylpentan-1-ol on OR2M3 in the absence or presence of different metal ions at 30 µmol/L (k). Note that the same data set in the absence of supplemented Cu^2+ (grey) is given in sub-panels (a-b, d-j) for didactic reasons. Data were mock control-subtracted, normalized to the OR2M3 wt signal in response to 3-mercapto-2-methylpentan-1-ol (20 µmol/L), measured in the absence of Cu^2+ (a-b, d-k) or rather normalized to the OR2T11 C119R signal in response to 2-methylpropan-2-thiol (100 µmol/L), measured in the presence of Cu^2+ (c), and shown as mean ± SD (n = 3 – 6). RLU = relative luminescence unit. 3MMP = 3-mercapto-2-methylpentan-1-ol. Note that for didactical reasons the concentration-response relations in Fig. 1b and Fig. S5a are the identical data set. […]
# OR1A1 wt = target: T9, OR1A1 wt (Homo sapiens, UniProt Q9P1Q5); assay: cAMP-luminescence GloSensor assay, recombinant OR1A1 wt; conditions: for EC50: OR1A1 wt
# T9 construct: 39aa rho-tag; expressed in transfected cells; host or cells: NxG 108CC15 or HEK-293 cells
# T9 sequence (Q9P1Q5 1-309): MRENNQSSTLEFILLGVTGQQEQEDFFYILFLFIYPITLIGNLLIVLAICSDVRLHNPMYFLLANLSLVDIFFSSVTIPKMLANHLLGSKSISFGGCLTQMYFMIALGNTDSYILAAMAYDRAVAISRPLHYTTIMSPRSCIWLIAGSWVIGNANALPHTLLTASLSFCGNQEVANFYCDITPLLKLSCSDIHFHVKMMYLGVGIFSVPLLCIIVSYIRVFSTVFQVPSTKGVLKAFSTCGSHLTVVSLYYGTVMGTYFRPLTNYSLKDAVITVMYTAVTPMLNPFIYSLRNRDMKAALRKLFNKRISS
# Procedure: as §1, §2
# [1] = target: sphingosine-1-phosphate receptor 4 (S1P4); assay: cAMP-luminescence GloSensor assay, endogenously expressed S1P4; conditions: footnote b: EC50 in nmol/L
# Procedure: as §1, §2
# [2] = EC50 in the presence of Cu^2+, 10 µmol/L Cu^2+
# [3] = 10 µmol/L Cu^2+, read-out: EC50 in the presence of Cu^2+
# [4] = mean ± SD (n = 3–5), read-out: EC50 in the absence of Cu^2+
# [5] = read-out: EC50 in the absence of Cu^2+
SMILES,agonist function in mutant receptor (OR2W1 Y252A),agonist function in mutant receptor (OR2W1 Y259A),agonist function in mutant receptor (OR2W1 Y252A/Y259A),EC50 (OR2W1 wt; [3]) [µM],EC50 (OR2W1 wt; [4]) [µM],EC50 (OR1A1 wt; [3]) [µM],EC50 (OR1A1 wt; [5]) [µM],EC50 (OR2W1 L202S; [3]) [µM],EC50 (OR2W1 L202S; [5]) [µM],EC50 (OR2W1 L202C; [3]) [µM],EC50 (OR2W1 L202C; [5]) [µM],EC50 (OR2W1 S109A; [3]) [µM],EC50 (OR2W1 S109A; [5]) [µM],further results
"C=CCOC(=O)Cc1ccccc1 [Allyl phenyl acetate, allyl phenyl acetate]",non-functional,non-functional,non-functional,–,–,–,–,–,–,–,–,–,–,"EC50 (OR2W1 wt; EC50 in the absence of Cu^2+, mean ± SD (n = 3–5)): 64.4 ± 3.58 µM; EC50 (OR2W1 wt; [2]): 55.2 ± 8.59 µM; EC50 (OR2W1 L202S; EC50 in the absence of Cu^2+): 37.6 ± 11.7 µM; EC50 (OR2W1 L202S; [2]): 46 ± 14.3 µM; EC50 (OR2W1 L202C; EC50 in the absence of Cu^2+): 130 ± 82.5 µM; EC50 (OR2W1 L202C; [2]): 73 ± 42.1 µM; EC50 (OR2W1 S109A; EC50 in the absence of Cu^2+): 46 ± 11.6 µM; EC50 (OR2W1 S109A; [2]): 119 ± 19.9 µM"
CC(C)(C)S [2-methylpropane-2-thiol],–,–,–,–,–,–,–,–,–,–,–,–,–,"Relative amplitude (OR2T11 C119R; 30 µmol/L CuCl2, normalized to OR2T11 C119R signal (100 µmol/L agonist) in the presence of Cu^2+): 1; EC50 (OR2T11 C119R; presence of 30 µmol/L CuCl2 (footnote d)): 0.25 ± 0.19 µM"
"CCCC(S)CCOC(C)=O (stereo not drawn) [3-Mercaptohexyl acetate, 3-mercaptohexyl acetate]",non-functional,non-functional,non-functional,121 ± 1.59,132 ± 20.9,354 ± 113,405 ± 86.7,311 ± 22.1,146 ± 6.48,114 ± 10.5,98.9 ± 7.49,127 ± 84.9,146 ± 23,–
COCCN=C1S/C(=C\c2cc(C)n(-c3ccc(F)cc3F)c2C)C(=O)N1C [CYM50308],–,–,–,–,–,–,–,–,–,–,–,–,–,"EC50 [1, 3]: 0.344 ± 0.091 µM; EC50 [1, 5]: 0.517 ± 0.0746 µM"
"SCCc1ccccc1 [2-Phenylethanethiol, 2-phenylethanethiol]",non-functional,non-functional,non-functional,106.2 ± 0.93,37.8 ± 0.62,73.1 ± 16.4,206 ± 21.5,96.7 ± 4.66,97 ± 13,63.4 ± 3.77,65.1 ± 10.8,38.9 ± 5.38,34.4 ± 9.98,efficacy in activating OR1A1 (OR1A1 wt; presence of Cu^2+ at 10 µmol/L): reduced
